Laboratory results: patent US8853129B2 (Dow AgroSciences, LLC., priority 2010, dated 2014)

Columns and labels:
Assay in all cases: Herbicidal activity of mixtures under field conditions, residual weed control in grape crop
Assay type in all cases: in vivo
[1] = system: black nightshade (Solanum nigrum; SOLNI); settings: France, glyphosate tank mixed
Method: (§1) Trials were conducted under field conditions in France. Trial sites were located in commercially grown European grape crop (Vitis vinifera). The grapes were grown using normal cultural practices for fertilization, seeding, and maintenance to ensure good growth of the crop and the weeds. The trials were conducted using normal research methodology. Trial plots were between 2 to 4.5 meters (m) wide by 5.5 to 10 m long. […] The trial sites had naturally occurring populations of weeds. The weed spectrum included, but was not limited to, black nightshade (Solanum nigrum; SOLNI), common lambsquarter (Chenopodium album; CHEAL), common groundsel (Senecio vulgaris; SENVU), round-leaved […] spuria; KICSP) and common purslane (Portulaca olerace; POROL). […] Glyphosate was tank mixed with all treatments to provide complete foliar control of all weeds so that the residual weed control after application could be evaluated. The application volumes were between 150-325 liters per hectare (L/ha) of water. All application were made using precision gas hand sprayers using a 2 or 3 m boom using flat fan (80° or 110°) nozzles to broadcast the treatments on the soil. The treated plots and control plots were rated blind at various intervals after application. […] Data were collected for all trials and analyzed using various statistical methods. Colby's equation was used to determine the herbicidal effects expected from the mixtures (Colby, S. R. Calculation of the synergistic and antagonistic response of herbicide combinations. Weeds 1967, 15, 20-22). […] A=observed efficacy of active ingredient A at the same concentration as used in the mixture; B=observed efficacy of active ingredient B at the same concentration as used in the mixture.

[2] = system: round-leaved fluellen (Kickxia spuria; KICSP); settings: penoxsulam 7 g ai/ha; 103 days after application, Fronton, France; glyphosate tank mixed
Method: as §1

[3] = system: common lambsquarter (Chenopodium album; CHEAL); settings: penoxsulam 7 g ai/ha; 109 DAA, Fronton, France; glyphosate tank mixed
Method: as §1

[4] = system: common purslane (Portulaca oleracea; POROL); settings: penoxsulam 7 g ai/ha; 103 days after application, Fronton, France; glyphosate tank mixed
Method: as §1

[5] = system: common groundsel (Senecio vulgaris; SENVU); settings: penoxsulam 7 g ai/ha; 103 days after application, Fronton, France; glyphosate tank mixed
Method: as §1

COc1cnc(OC)n2nc(NS(=O)(=O)c3c(OCC(F)F)cccc3C(F)(F)F)nc12 [Penoxsulam]
Percent Control SOLNI (1) Ob ([1]; penoxsulam 5.6 g ai/ha, 56 DAA, Bourdic): 78% | Percent Control SOLNI (2) Ob ([1]; penoxsulam 7 g ai/ha, 68 DAA, Eshallat): 17% | Percent Control KICSP Ob [2]: 0% | Percent Control CHEAL Ob [3]: 13% | Percent Control POROL Ob [4]: 0% | Percent Control SENVU Ob [5]: 27%
